This is an account of results in patent US8507464B2, “Phosphoramidate alkylator prodrugs” (Threshold Pharmaceuticals, Inc., priority 2005, dated 2013).

One series has as its system HT29 spheroids. Briefly: Spheroid model, clonogenic survival. The series is classed as cell-based. As to conditions: Homo sapiens, HT-29, read-out: IC90 HT29 Spheroid 10% O2.
Another series concerns spheroids. The series can be described thus: Spheroid combination with cisplatin or daunorubicin, clonogenic survival. As to conditions: Homo sapiens, 2 h exposure. It counts as cell-based, human. The procedure: The phosphoramidate alkylator prodrug was combined simultaneously with cisplatin or daunorubicin and the spreroids exposed for 2 h to the combination, followed by measurement of clonogenic survival.

The subject of series [1] is rat (RLM) liver microsomal proteins. Briefly: Metabolic stability in liver microsomal protein. As to conditions: 5 μM. The series is classed as in vitro ADME. On the technique in general: Liver microsomes are a subcellular fraction often used to study metabolism.
Series [2] deals with mouse (MLM) liver microsomal proteins. It counts as in vitro ADME. As to conditions: Table 1, first study, 5 μM.
The next series relates to HT29 xenograft. Briefly: HT-29 xenograft mouse model with CDDP (Example 52). The series is classed as in vivo. As to conditions: for % Inhibition vs Group 1 / % Inhibition vs Group 2: tumor volumes at day 25; for % Inhibition vs Group 1: vs vehicle group, regimen per table. Here is the method:
Female CB17/SCID mice (purchased from Charles River, Cambridge, Mass.), 7-8 weeks of age, were allowed to acclimatize for at least three days, and handled under pathogen-free conditions. Human colon carcinoma cell line HT29 was obtained from the American Type Culture Collection. The cell lines were cultured and harvested as described in Example 47 and inoculated at 3×10^6 cells/animal in the peritoneal subcutaneous space. When the tumors grew to an average volume of 100 mm^3 (day 8), each group of mice (ten per group) was administered, for three weeks, as tabulated in the table below: Compound 25 in saline, administration route—i.p., administrated 2 h before CDDP on the days the combination therapy is scheduled and CDDP (in saline, IV).
The body weight and tumor volume were determined as described in Example 47. Data are based on tumor volumes at day 25 when tumors in the vehicle group had reached sufficient size to require that the mice be sacrificed.

The test system of the next series is NCI H460 xenograft. The series can be described thus: H460 xenograft mouse model, 150 mg/kg weekly with CDDP (Example 53). It counts as in vivo. Here is the method:
Female CB17/SCID mice (purchased from Charles River, Cambridge, Mass.), 7-8 weeks of age, were allowed to acclimatize for at least three days, and handled under pathogen-free conditions. Human non-small cell lung cell line NCI H460 was obtained from the American Type Culture Collection. The cell lines were cultured and harvested as described in Example 47 and inoculated at 3×10^6 cells/animal in the peritoneal subcutaneous space. When the tumors grew to an average volume of 100 mm^3, treatment was initiated in which groups of 10 mice received vehicle (Group 1), CDDP at 6 mg/kg (IV one time, Group 2), Compound 25 at 150 mg/kg in saline, once a week for two weeks (i.p., Group 3), or the combination of the two agents (Group 4).

The subject of another series is HT29 cells. Briefly: Clonogenic assay - oxygen dependence. As to conditions: Homo sapiens.
For series [3], the system named is PC3 cells. Briefly: Clonogenic assay - oxygen dependence. As to conditions: Homo sapiens.
In another series the test system is Irs1SF. The series can be described thus: Clonogenic survival - DNA mutant repair cells. As to conditions: Cricetulus griseus.
The subject of another series is ACHN cells. Briefly: Antiproliferation assay (Alamar Blue), anoxia vs air. As to conditions: Homo sapiens, 2 h. A general note: Alamar Blue is a resazurin reagent that responds to reducing activity.
The test system of series [4] is PC3 cells. Described as above. As to conditions: Homo sapiens, PC-3, 2 h.
The subject of series [5] is HT-29 human colon carcinoma xenograft. The series can be described thus: HT-29 human colon carcinoma xenograft mouse model (Example 47). As to conditions: for % Inhibition vs Group 1: vs vehicle. It counts as in vivo. The procedure:
Female CB17/SCID mice (purchased from Charles River, Cambridge, Mass.), 7-8 weeks of age, were allowed to acclimatize for at least three days, and handled under pathogen-free conditions. Human colon carcinoma cell line HT-29 was obtained from the American Type Culture Collection. The cell lines were cultured in RPMI 1640 media supplemented with 10% fetal bovine serum. Cells were maintained in a 37° C. incubator with 5% CO2. The HT-29 cells were harvested from culture and inoculated at 3×10^6 cells/animal in the peritoneal subcutaneous space. When the tumors grew to an average volume of 100 mm^3 (day 8), each group of 10 mice was administered, for three weeks, vehicle alone (saline and PEG (10 mL/kg each), Group 1), Compound 36 alone (dissolved in 30% cyclodextrin in PBS) at a daily dose of 20, 60, or 200 mg/kg (Groups 2, 3 and 4, respectively), and Compound 36 at a daily dose of 20, 60, and 200 mg/kg given 2-3 hours after a dose of 10 mg/kg of 5FU (in saline) (Group 5, 6 and 7, respectively) and compared to a group receiving only 5FU at 10 mg/kg (Group 8) as tabulated below.
The body weight of each mouse was recorded twice per week. Growth of each xenograft was monitored by externally measuring tumors in two dimensions using a digital caliper twice per week. Tumor volume (V) was determined by the following equation: V=(L×W^2)/2, where L is the length and W is the width of a xenograft. Tumor volumes were measured twice weekly.

A further series concerns HT29. The series can be described thus: Clonogenic assay, hypoxia vs normoxia (Table 1B). As to conditions: Homo sapiens, HT-29, read-out: HT29 C H (clonogenic IC90, hypoxia).
The subject of the next series is human H460 cells. Briefly: Clonogenic survival assay, hypoxia vs normoxia (Table 1A). As to conditions: for IC90: Homo sapiens.
The mark [6] stands for this setting: Group 7, Compound 25 i.p. in combination with CDDP IV.
Where [7] appears, read: Group 8, Compound 25 i.p. in combination with CDDP IV.
The mark [8] stands for this setting: Group 9, Compound 25 i.p. in combination with CDDP IV.
Where [9] appears, read: Group 10, Compound 25 i.p. in combination with CDDP IV.

Read-outs that look alike come from different tables or passages of the source.

The IC90 is the point of the concentration-response curve where the effect stands at 90%. Usually IC50 stands for the midpoint of a concentration-inhibition curve.

Take `Cn1c(COP(=O)(NCCBr)NCCBr)cnc1[N+](=O)[O-]` [Compound 25]: the IC90 worked out at 29 µM in the series on HT29 spheroids; 3 µM with HT29 cells (HT-29, read-out: IC90 HT29 0.6% O2); 40 µM in the series with HT29 cells (HT-29, read-out: IC90 HT29 Air); 0.2 µM in the series with HT29 cells (HT-29, read-out: IC90 HT29 N2); 50 µM with PC3 cells [3] (PC-3, read-out: IC90 PC3 Air); 0.3 µM in the series on PC3 cells [3] (PC-3, read-out: IC90 PC3 N2). Also, the IC90 in the series on Irs1SF (read-out: IC90 Irs1SF Air) is 20 µM; in the series on Irs1SF (read-out: IC90 Irs1SF N2) it was 0.02 µM. For the same compound, the concentration for half-maximal inhibition (IC50) with spheroids (read-out: IC50 (μM), spheroids, cisplatin combination experiment) is 12 µM; with spheroids (read-out: IC50 (μM), spheroids, daunorubicin combination experiment) it was 9 µM; in the series on ACHN cells (read-out: IC50 ACHN Air), 62 µM; in the series with ACHN cells (read-out: IC50 ACHN Anoxia), 0.2 µM; in the series with PC3 cells [4] (read-out: IC50 PC3 Air), above 100 µM; in the series on PC3 cells [4] (read-out: IC50 PC3 Anoxia) it was 0.6 µM. Moreover, the “Metabolic stability (% at 30 min) RLM” value in [1] (Table 1, first study) was 84%; in series [1] (Table 2A, second study) it was 137%. Further, the “Metabolic stability (% at 30 min) MLM” value in series [2] came to 89%. In addition, the “% Inhibition vs Group 1” value in the series with HT29 xenograft (Group 3, Compound 25 in saline i.p.) came to 28.2%; in the series with HT29 xenograft (Group 4, Compound 25 in saline i.p.) it was 30.1%; with HT29 xenograft (Group 5, Compound 25 in saline i.p.), 31.3%; with HT29 xenograft (Group 6, Compound 25 in saline i.p.), 48.1%; in the series on HT29 xenograft (setting [6]), 50.7%; with HT29 xenograft (setting [7]), 44.2%. Also, the “% Inhibition vs Group 1” value in the series on HT29 xenograft (setting [8]) was 36.2%; in the series on HT29 xenograft (setting [9]), 51.8%. Besides, the “% Inhibition vs Group 2” value with HT29 xenograft (setting [6]) was 30.8%; with HT29 xenograft (setting [7]) it was 27.5%; with HT29 xenograft (setting [8]) it was 21.5%; in the series with HT29 xenograft (setting [9]), 33.2%. Further, in the series with HT29 xenograft (monotherapy 50 and 100 mg/kg/day, various regimens, saline), the tumor growth result was “inhibition of tumor growth”. In addition, the body weight result in the series with HT29 xenograft (more so in combination groups, recovered) is on record as “modest body weight loss”; in the series with NCI H460 xenograft (150 mg/kg once a week), “Little change in body weight”. Moreover, the “tumor growth during the two week period of dosing” value in the series on NCI H460 xenograft (150 mg/kg once a week for two weeks, i.p.) was “complete inhibition of tumor growth”.

For the compound `Cn1c(COP(=O)(NCCCl)NCCCl)cnc1[N+](=O)[O-]` [Compound 36], the “% Inhibition vs Group 1” value is 34.6% in series [5] (Group 2: Compound 36 20 mg/kg daily, 3 weeks); 16.1% in [5] (Group 3: Compound 36 60 mg/kg daily); 20.2% in series [5] (Group 4: Compound 36 200 mg/kg daily). Besides, the “body weight and mortality” value in series [5] (particularly high dose group) was “some degree of weight loss and occasional mortality”. The MTD in the series “in vivo” is 400 mg/kg. Besides, the concentration for an effect of 90% (IC90) is 3 µM in the series with HT29; 0.2 µM with human H460 cells (NCI-H460, read-out: Hypoxia C (clonogenic IC90)); above 100 µM in the series with human H460 cells (NCI-H460, read-out: Normoxia C (clonogenic IC90)). For the same compound, the “HCR C” value in the series on human H460 cells (ratio of IC90 in normoxia and hypoxia) is given as above 500.
